Measurements: PubChem BioAssay (NCI)
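Following 48 hours of exposure in 96-well plates, responses at five concentrations were used to interpolate endpoints linearly. GI50: concentration for 50% inhibition of growth. TGI: total growth inhibition.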

Key:
Assay in all cases: NCI anticancer screen, dose series, 48 h
SNB-19 CNS = test system: SNB-19 CNS
U251 CNS = test system: U251 CNS
SN12C renal = test system: SN12C renal
SK-MEL-5 melanoma = test system: SK-MEL-5 melanoma
SW-620 colon = test system: SW-620 colon
HCT-15 colon = test system: HCT-15 colon
HS 578T breast = test system: HS 578T breast
HCT-116 colon = test system: HCT-116 colon
SK-MEL-28 melanoma = test system: SK-MEL-28 melanoma
OVCAR-4 ovarian = test system: OVCAR-4 ovarian
786-0 renal = test system: 786-0 renal
NCI-H23 lung = test system: NCI-H23 lung
SF-295 CNS = test system: SF-295 CNS
KM12 colon = test system: KM12 colon
T-47D breast = test system: T-47D breast
SF-268 CNS = test system: SF-268 CNS
RXF 393 renal = test system: RXF 393 renal
IGROV1 ovarian = test system: IGROV1 ovarian
DU-145 prostate = test system: DU-145 prostate
ACHN renal = test system: ACHN renal
LOX IMVI melanoma = test system: LOX IMVI melanoma
COLO 205 colon = test system: COLO 205 colon
HL-60(TB) leukemia = test system: HL-60(TB) leukemia
M14 melanoma = test system: M14 melanoma
MCF7 breast = test system: MCF7 breast
MOLT-4 leukemia = test system: MOLT-4 leukemia
NCI-H522 lung = test system: NCI-H522 lung
K-562 leukemia = test system: K-562 leukemia
HOP-92 NSCLC = test system: HOP-92 NSCLC
SK-MEL-2 melanoma = test system: SK-MEL-2 melanoma
UACC-257 melanoma = test system: UACC-257 melanoma
SNB-75 CNS = test system: SNB-75 CNS
OVCAR-5 ovarian = test system: OVCAR-5 ovarian
TK-10 renal = test system: TK-10 renal
RPMI-8226 leukemia = test system: RPMI-8226 leukemia
SK-OV-3 ovarian = test system: SK-OV-3 ovarian
OVCAR-8 ovarian = test system: OVCAR-8 ovarian
A498 renal = test system: A498 renal
HCC-2998 colon = test system: HCC-2998 colon
SF-539 CNS = test system: SF-539 CNS
NCI-H460 lung = test system: NCI-H460 lung
NCI/ADR-RES ovarian = test system: NCI/ADR-RES ovarian
UO-31 renal = test system: UO-31 renal
A549 NSCLC = test system: A549 NSCLC
HOP-62 NSCLC = test system: HOP-62 NSCLC
OVCAR-3 ovarian = test system: OVCAR-3 ovarian
CCRF-CEM leukemia = test system: CCRF-CEM leukemia
MDA-MB-468 breast = test system: MDA-MB-468 breast
EKVX NSCLC = test system: EKVX NSCLC
MDA-MB-231 breast = test system: MDA-MB-231 breast
BT-549 breast = test system: BT-549 breast
UACC-62 melanoma = test system: UACC-62 melanoma
SR leukemia = test system: SR leukemia
MALME-3M melanoma = test system: MALME-3M melanoma
NCI-H226 lung = test system: NCI-H226 lung
CAKI-1 renal = test system: CAKI-1 renal
HT29 colon = test system: HT29 colon
MDA-MB-435 = test system: MDA-MB-435
PC-3 prostate = test system: PC-3 prostate

`O=C(N/N=C/c1ccsc1)c1[nH]c2ccc(Br)cc2c1-c1ccccc1` gave a GI50 (SNB-19 CNS) of 1.84 µM, a TGI (SNB-19 CNS) of 66.4 µM and a GI50 (U251 CNS) of 0.724 µM. It also gave a TGI (U251 CNS) of 18.9 µM, a GI50 (SN12C renal) of 0.473 µM and a TGI (SN12C renal) of 12.5 µM. For the same compound, the GI50 (SK-MEL-5 melanoma) was 0.26 µM, the TGI (SK-MEL-5 melanoma) was 1.83 µM and the GI50 (SW-620 colon) was 0.204 µM. The TGI (SW-620 colon) was 19.1 µM, the GI50 (HCT-15 colon) was 0.256 µM and the TGI (HCT-15 colon) was 12.8 µM. It also gave a GI50 (HS 578T breast) of 0.202 µM, a TGI (HS 578T breast) of 13.2 µM and a GI50 (HCT-116 colon) of 0.19 µM. The TGI (HCT-116 colon) was 4.41 µM, the GI50 (SK-MEL-28 melanoma) was 4.19 µM and the TGI (SK-MEL-28 melanoma) was 22.6 µM. It also gave a GI50 (OVCAR-4 ovarian) of 6.1 µM, a TGI (OVCAR-4 ovarian) of over 66.6 µM and a GI50 (786-0 renal) of 0.509 µM. For the same compound, the TGI (786-0 renal) was 17.7 µM, the GI50 (NCI-H23 lung) was 0.696 µM and the TGI (NCI-H23 lung) was 18.9 µM. For the same compound, the GI50 (SF-295 CNS) was 0.189 µM, the TGI (SF-295 CNS) was 13.8 µM and the GI50 (KM12 colon) was 0.327 µM. For the same compound, the TGI (KM12 colon) was 14.1 µM, the GI50 (T-47D breast) was 3.12 µM and the TGI (T-47D breast) was 48.5 µM. It also gave a GI50 (SF-268 CNS) of 0.817 µM, a TGI (SF-268 CNS) of 17.9 µM and a GI50 (RXF 393 renal) of 0.287 µM. The TGI (RXF 393 renal) was 26.7 µM, the GI50 (IGROV1 ovarian) was 0.6 µM and the TGI (IGROV1 ovarian) was 15.6 µM. The GI50 (DU-145 prostate) was 0.435 µM, the TGI (DU-145 prostate) was 32.9 µM and the GI50 (ACHN renal) was 0.585 µM. For the same compound, the TGI (ACHN renal) was 27.7 µM, the GI50 (LOX IMVI melanoma) was 0.217 µM and the TGI (LOX IMVI melanoma) was 13.3 µM. The GI50 (COLO 205 colon) was 0.353 µM, the TGI (COLO 205 colon) was 1.97 µM and the GI50 (HL-60(TB) leukemia) was 0.199 µM. The TGI (HL-60(TB) leukemia) was 0.656 µM, the GI50 (M14 melanoma) was 0.267 µM and the TGI (M14 melanoma) was 13.1 µM. It also gave a GI50 (MCF7 breast) of 0.132 µM, a TGI (MCF7 breast) of 13.4 µM and a GI50 (MOLT-4 leukemia) of 0.386 µM. The TGI (MOLT-4 leukemia) was 18.4 µM, the GI50 (NCI-H522 lung) was 0.163 µM and the TGI (NCI-H522 lung) was 0.699 µM. The GI50 (K-562 leukemia) was 0.103 µM, the TGI (K-562 leukemia) was over 44 µM and the GI50 (HOP-92 NSCLC) was 2.44 µM. It also gave a TGI (HOP-92 NSCLC) of 25 µM, a GI50 (SK-MEL-2 melanoma) of 0.764 µM and a TGI (SK-MEL-2 melanoma) of 20 µM. The GI50 (UACC-257 melanoma) was 6.93 µM, the TGI (UACC-257 melanoma) was 41.3 µM and the GI50 (SNB-75 CNS) was 0.234 µM. The TGI (SNB-75 CNS) was 21.5 µM, the GI50 (OVCAR-5 ovarian) was 0.563 µM and the TGI (OVCAR-5 ovarian) was 22.5 µM. The GI50 (TK-10 renal) was 13.5 µM, the TGI (TK-10 renal) was 85 µM and the GI50 (RPMI-8226 leukemia) was 0.236 µM. It also gave a TGI (RPMI-8226 leukemia) of 16.6 µM, a GI50 (SK-OV-3 ovarian) of 2.05 µM and a TGI (SK-OV-3 ovarian) of 27.2 µM. It also gave a GI50 (OVCAR-8 ovarian) of 0.313 µM, a TGI (OVCAR-8 ovarian) of 10.3 µM and a GI50 (A498 renal) of 19.5 µM. The TGI (A498 renal) was 46.5 µM, the GI50 (HCC-2998 colon) was 0.399 µM and the TGI (HCC-2998 colon) was 13 µM. The GI50 (SF-539 CNS) was 0.19 µM, the TGI (SF-539 CNS) was 0.943 µM and the GI50 (NCI-H460 lung) was 0.156 µM. The TGI (NCI-H460 lung) was 10.6 µM, the GI50 (NCI/ADR-RES ovarian) was 0.173 µM and the TGI (NCI/ADR-RES ovarian) was 0.549 µM. For the same compound, the GI50 (UO-31 renal) was 0.578 µM, the TGI (UO-31 renal) was 24.2 µM and the GI50 (A549 NSCLC) was 0.46 µM. It also gave a TGI (A549 NSCLC) of over 100 µM, a GI50 (HOP-62 NSCLC) of 0.512 µM and a TGI (HOP-62 NSCLC) of 18.1 µM. For the same compound, the GI50 (OVCAR-3 ovarian) was 0.202 µM, the TGI (OVCAR-3 ovarian) was 12.6 µM and the GI50 (CCRF-CEM leukemia) was 0.228 µM. For the same compound, the TGI (CCRF-CEM leukemia) was 21.7 µM, the GI50 (MDA-MB-468 breast) was 0.255 µM and the TGI (MDA-MB-468 breast) was 3.89 µM. It also gave a GI50 (EKVX NSCLC) of 0.872 µM, a TGI (EKVX NSCLC) of 29.3 µM and a GI50 (MDA-MB-231 breast) of 0.792 µM. For the same compound, the TGI (MDA-MB-231 breast) was 13.1 µM, the GI50 (BT-549 breast) was 0.317 µM and the TGI (BT-549 breast) was 1.95 µM. It also gave a GI50 (UACC-62 melanoma) of 0.299 µM, a TGI (UACC-62 melanoma) of 16 µM and a GI50 (SR leukemia) of 0.255 µM. It also gave a TGI (SR leukemia) of 63.5 µM, a GI50 (MALME-3M melanoma) of 6.99 µM and a TGI (MALME-3M melanoma) of 26.1 µM. It also gave a GI50 (NCI-H226 lung) of 1.75 µM, a TGI (NCI-H226 lung) of 27.6 µM and a GI50 (CAKI-1 renal) of 0.315 µM. The TGI (CAKI-1 renal) was 25 µM, the GI50 (HT29 colon) was 0.272 µM and the TGI (HT29 colon) was 4.75 µM. For the same compound, the GI50 (MDA-MB-435) was 0.0764 µM, the TGI (MDA-MB-435) was 0.525 µM and the GI50 (PC-3 prostate) was 0.612 µM. For the same compound, the TGI (PC-3 prostate) was 24 µM.
